IC50 data for 9 compounds are collected here from US20210395239A1 (Hoffmann-La Roche Inc., priority 2018, published 2021).

This assay concerns the target T1, hTLR9 (Homo sapiens, UniProt Q9NR96).
T1 sequence (Q9NR96 26-1032): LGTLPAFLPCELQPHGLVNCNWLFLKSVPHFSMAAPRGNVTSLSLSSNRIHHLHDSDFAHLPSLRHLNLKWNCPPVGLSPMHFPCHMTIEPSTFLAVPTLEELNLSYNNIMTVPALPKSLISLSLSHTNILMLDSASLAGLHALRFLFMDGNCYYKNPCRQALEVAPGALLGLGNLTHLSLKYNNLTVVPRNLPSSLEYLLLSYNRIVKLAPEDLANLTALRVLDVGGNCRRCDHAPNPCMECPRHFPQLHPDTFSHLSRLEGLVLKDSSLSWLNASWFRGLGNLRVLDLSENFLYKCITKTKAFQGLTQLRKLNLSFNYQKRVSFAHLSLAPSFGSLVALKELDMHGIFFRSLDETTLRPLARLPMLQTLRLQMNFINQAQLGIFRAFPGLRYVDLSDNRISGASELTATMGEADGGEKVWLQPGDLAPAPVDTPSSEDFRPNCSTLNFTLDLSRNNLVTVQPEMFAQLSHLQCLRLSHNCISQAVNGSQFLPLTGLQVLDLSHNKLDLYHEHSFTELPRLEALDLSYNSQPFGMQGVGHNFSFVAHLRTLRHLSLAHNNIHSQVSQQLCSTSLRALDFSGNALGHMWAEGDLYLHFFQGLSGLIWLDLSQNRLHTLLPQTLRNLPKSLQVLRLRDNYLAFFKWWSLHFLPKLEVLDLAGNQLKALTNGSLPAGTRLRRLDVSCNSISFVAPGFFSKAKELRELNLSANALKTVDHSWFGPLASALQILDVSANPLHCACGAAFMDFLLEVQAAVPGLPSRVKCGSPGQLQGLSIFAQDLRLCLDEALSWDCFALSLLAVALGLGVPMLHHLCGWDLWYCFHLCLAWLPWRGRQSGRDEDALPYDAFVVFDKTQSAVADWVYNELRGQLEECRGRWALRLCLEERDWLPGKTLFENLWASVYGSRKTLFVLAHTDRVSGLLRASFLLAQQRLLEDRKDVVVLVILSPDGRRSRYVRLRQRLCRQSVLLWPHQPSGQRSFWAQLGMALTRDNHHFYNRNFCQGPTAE
The assay is described as follows: HEK293-Blue-hTLR-9 cells assay (SEAP reporter, ODN2006 stimulation). Conditions: HEK293-Blue-hTLR9 cells, ODN2006, 20 hrs; read-out: HEK/hTLR9 IC50. Also on record: host or cells: HEK293 (HEK-Blue hTLR9). The class given is cell-based. The procedure, abridged: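 HEK293-Blue-hTLR9 cells with NF-κB/AP-1-driven SEAP reporter treated with serially diluted compound (1% DMSO final) plus ODN2006 for 20 h at 37 °C. Supernatant SEAP measured with QUANTI-Blue, 2 h at 37 °C, absorbance 620–655 nm; antagonism seen as reduced reporter signal.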
With `[2H]c1ccc2c(N3C[C@H](CN4CC(c5ccc(N6CC(C)(N)C6)nc5)C4)O[C@H](C)C3)ccc(C#N)c2n1` [Example 138, 5-[(2S,6R)-2-[[3-[6-(3-amino-3-methyl-azetidin-1-yl)-3-pyridyl]azetidin-1-yl]methyl]-6-methyl-morpholin-4-yl]-2-deuterio-quinoline-8-carbonitrile], the IC50 was 40 nM.

Consider `[2H]c1ccc2c(N3C[C@H](CN4CCN(c5ncc(N6CC(C)(N)C6)cc5C)CC4)O[C@H](C)C3)ccc(C#N)c2n1` [Example 139, 5-[(2S,6R)-2-[[4-[5-(3-amino-3-methyl-azetidin-1-yl)-3-methyl-2-pyridyl]piperazin-1-yl]methyl]-6-methyl-morpholin-4-yl]-2-deuterio-quinoline-8-carbonitrile], for which the IC50 was determined as 78 nM.

As for `[2H]c1ccc2c(N3C[C@H](CN4CC(c5ccc(N6C[C@H](OC)[C@@H](N)C6)cc5)C4)O[C@H](C)C3)ccc(C#N)c2n1` [Example 140, 5-[(2S,6R)-2-[[3-[4-[(3S,4S)-3-amino-4-methoxy-pyrrolidin-1-yl]phenyl]azetidin-1-yl]methyl]-6-methyl-morpholin-4-yl]-2-deuterio-quinoline-8-carbonitrile], the IC50 worked out at 162 nM.

For the compound `[2H]c1ccc2c(N3C[C@H](CN4CC(c5ccc(N6CC(C)(N)C6)cc5)C4)O[C@H](C)C3)ccc(C#N)c2n1` [Example 141, 5-[(2S,6R)-2-[[3-[4-(3-amino-3-methyl-azetidin-1-yl)phenyl]azetidin-1-yl]methyl]-6-methyl-morpholin-4-yl]-2-deuterio-quinoline-8-carbonitrile], the IC50 is 44 nM.

Turning to `[2H]c1ccc2c(N3C[C@H](CN4CCN(c5ncc(N6C[C@@H](N)[C@H](OC)C6)cc5C)CC4)O[C@H](C)C3)ccc(C#N)c2n1` [Example 142, 5-[(2S,6R)-2-[[4-[5-[(3R,4R)-3-amino-4-methoxy-pyrrolidin-1-yl]-3-methyl-2-pyridyl]piperazin-1-yl]methyl]-6-methyl-morpholin-4-yl]-2-deuterio-quinoline-8-carbonitrile], the IC50 turned out to be 64 nM.

On to `[2H]c1ccc2c(N3C[C@H](CN4CCN(c5nc(C)cc(N6C[C@@H](N)[C@H](OC)C6)n5)CC4)O[C@H](C)C3)ccc(C#N)c2n1` [Example 144, 5-[(2S,6R)-2-[[4-[4-[(3R,4R)-3-amino-4-methoxy-pyrrolidin-1-yl]-6-methyl-pyrimidin-2-yl]piperazin-1-yl]methyl]-6-methyl-morpholin-4-yl]-2-deuterio-quinoline-8-carbonitrile], for which the IC50 came out at 31 nM.

As to `[2H]c1ccc2c(N3C[C@H](CN4CC(c5cnc(N6CC(C)(N)C6)cc5C)C4)O[C@H](C)C3)ccc(C#N)c2n1` [Example 145, 5-[(2S,6R)-2-[[3-[6-(3-amino-3-methyl-azetidin-1-yl)-4-methyl-3-pyridyl]azetidin-1-yl]methyl]-6-methyl-morpholin-4-yl]-2-deuterio-quinoline-8-carbonitrile], the IC50 stood at 31 nM.

On to `[2H]c1ccc2c(N3C[C@H](CN4CC(c5cnc(N6C[C@@H](N)[C@H](OC)C6)cc5C)C4)O[C@H](C)C3)ccc(C#N)c2n1` [Example 146, 5-[(2S,6R)-2-[[3-[6-[(3R,4R)-3-amino-4-methoxy-pyrrolidin-1-yl]-4-methyl-3-pyridyl]azetidin-1-yl]methyl]-6-methyl-morpholin-4-yl]-2-deuterio-quinoline-8-carbonitrile], for which the IC50 is 31 nM.

For `[2H]c1ccc2c(N3C[C@H](CN4CCN(c5ccc(N6CC(C)(N)C6)c(C)n5)CC4)O[C@H](C)C3)ccc(C#N)c2n1` [Example 147, 5-[(2S,6R)-2-[[4-[5-(3-amino-3-methyl-azetidin-1-yl)-6-methyl-2-pyridyl]piperazin-1-yl]methyl]-6-methyl-morpholin-4-yl]-2-deuterio-quinoline-8-carbonitrile], the IC50 was found to be 181 nM.
